Experimental data taken from patent US20210318318A1, “Kinase Activity In Tumors” (Institute For Cancer Research d/b/a The Research Institute …, priority 2018, published 2021).

Target: T1, MAP3K12 (Homo sapiens, UniProt Q12852)
T1 construct: endogenous in cells; host or cells: OVSAHO
T1 sequence (Q12852 1-859): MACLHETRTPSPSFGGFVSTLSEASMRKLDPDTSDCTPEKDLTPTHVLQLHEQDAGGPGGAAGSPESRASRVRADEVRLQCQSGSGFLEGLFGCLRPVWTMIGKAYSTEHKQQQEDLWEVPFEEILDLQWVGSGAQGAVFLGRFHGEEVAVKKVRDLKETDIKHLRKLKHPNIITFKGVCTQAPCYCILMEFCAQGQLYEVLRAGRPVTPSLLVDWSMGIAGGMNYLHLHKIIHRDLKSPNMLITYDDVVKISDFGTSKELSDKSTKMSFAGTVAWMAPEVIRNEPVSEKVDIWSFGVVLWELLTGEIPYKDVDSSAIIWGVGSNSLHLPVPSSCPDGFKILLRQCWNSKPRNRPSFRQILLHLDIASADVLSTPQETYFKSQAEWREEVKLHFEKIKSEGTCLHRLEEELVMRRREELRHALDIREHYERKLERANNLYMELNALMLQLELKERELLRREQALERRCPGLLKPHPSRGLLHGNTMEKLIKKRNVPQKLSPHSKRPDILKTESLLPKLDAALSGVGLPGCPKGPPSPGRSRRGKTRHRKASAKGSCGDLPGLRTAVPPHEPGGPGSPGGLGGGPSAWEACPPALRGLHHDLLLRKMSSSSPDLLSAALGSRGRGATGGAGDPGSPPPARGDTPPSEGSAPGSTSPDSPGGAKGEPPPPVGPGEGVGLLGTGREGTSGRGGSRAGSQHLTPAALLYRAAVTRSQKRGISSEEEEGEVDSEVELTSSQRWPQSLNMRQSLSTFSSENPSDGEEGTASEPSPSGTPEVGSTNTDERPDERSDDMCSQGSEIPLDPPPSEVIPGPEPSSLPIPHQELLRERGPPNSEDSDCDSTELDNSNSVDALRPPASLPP
Assay: MIB/MS kinome profiling of inhibitor-treated OVSAHO cells
Type: cell-based
Settings: 2 μM, 4 hours
Description: OVSAHO cells were treated with 2 μM of inhibitor for 4 hours and analyzed by MIB/MS. Scatterplot depicts difference in kinase MIB-binding of drug treated relative to control DMSO as determined by Students T-test.
MIB-based kinome profiling was performed on several of these molecules in HGSOC cells to determine kinome-wide inhibition profiles.
Experiments using MIB/MS were performed as previously described (Duncan et al., Cell, 2012, 149, 307-321; and Kurimchak et al., Cell Reports, 2016, 16, 1273-1286). Briefly, cells or tumors were lysed on ice in buffer containing 50 mM HEPES (pH 7.5), 0.5% Triton X-100, 150 mM NaCl, 1 mM EDTA, 1 mM EGTA, 10 mM sodium fluoride, 2.5 mM sodium orthovanadate, 1× protease inhibitor cocktail (Roche), and 1% each of phosphatase inhibitor cocktails 2 and 3 (Sigma). Particulate was removed by centrifugation of lysates at 13,000 rpm for 10 minutes at 4° C. and filtration through 0.2 μm syringe filters. Protein concentrations were determined by BCA analysis (Thermo). To compare kinome signatures within and across such large sample sizes, a super-SILAC method was designed (Neubert et al., Nat. Meth., 2010, 7, 361-362) consisting of a cocktail of cancer cell lines that encompasses the activity of the “cancer kinome” to be used as a control for individual samples. Five cancer cell lines were selected from the NCI-60 panel (UACC257, MOLT4, COL0205, ACHN and PC3) that differed in their origin, gene expression patterns and mutation status. The cancer cell lines were labeled using SILAC and mixed equally providing a diverse SILAC ([^13C6,^15N4] arginine (Arg^10) and […] (Lys^8)) heavy kinome reference standard (HKS) to be used repeatedly in kinome profiling assays. An equal amount of the HKS was added to the non-labeled sample (cell, tumor or normal tissue) providing a quantitative strategy to compare kinome activity/levels across samples, amongst treatments and, importantly, across time. Endogenous kinases were isolated by flowing lysates over kinase inhibitor-conjugated Sepharose beads (purvalanol B, VI16832, PP58 and CTx-0294885 beads were used) in 10 ml gravity-flow columns. After 2×10 ml column washes in high-salt buffer and 1×10 ml wash in low-salt buffer (containing 50 mM HEPES (pH 7.5), 0.5% Triton X-100, 1 mM EDTA, 1 mM EGTA, and 10 mM sodium fluoride, and 1M NaCl or 150 mM NaCl, respectively), retained kinases were eluted from the column by boiling in 2×500 μL of 0.5% SDS, 0.1 M TrisHCl (pH 6.8), and 1% 2-mercaptoethanol. Eluted peptides were reduced by incubation with 5 mM DTT at 60° C. for 25 minutes, alkylated with 20 mM iodoacetamide at room temperature for 30 minutes in the dark and alkylation was quenched with DTT. Samples were concentrated to approximately 100 μL with Millipore 10 kD cutoff spin concentrators. Detergent was removed by chloroform/methanol extraction, and the protein pellet was resuspended in 100 mM ammonium bicarbonate and digested with sequencing-grade modified trypsin (Promega) overnight at 37° C. […]
Proteolytic peptides were resuspended in 0.1% formic acid and separated with a Thermo RSLC Ultimate 3000 on a Thermo Easy-Spray C18 PepMap 75 μm×50 cm C-18 2 μm column with a 240 minute gradient of 4-25% acetonitrile with 0.1% formic acid at 300 nL/min and 50° C. Eluted peptides were analyzed by a Thermo Q Exactive plus mass spectrometer utilizing a top 15 methodology in which the 15 most intense peptide precursor ions were subjected to fragmentation. […]

Compound: Cc1[nH]nc2ccc(-c3cncc(OC[C@@H](N)Cc4ccccc4)c3)cc12 [A-674563]
- MIB-binding of MAP3K12: inhibited
